Like-named read-outs stand apart in the source and are kept apart here.
How the values were obtained:
γ-GCS [1] = target: T1, γ-GCS (Mus musculus, UniProt P97494); test: γ-GCS activity in intestine of treated mice; format: in vivo
T1 construct: Determination of γ-GCS Activity and GSH Levels in Liver and Intestine; from tissue; host or cells: liver and intestine of WT and Vanin-1-/- BALB/c mice
T1 sequence (P97494 1-637): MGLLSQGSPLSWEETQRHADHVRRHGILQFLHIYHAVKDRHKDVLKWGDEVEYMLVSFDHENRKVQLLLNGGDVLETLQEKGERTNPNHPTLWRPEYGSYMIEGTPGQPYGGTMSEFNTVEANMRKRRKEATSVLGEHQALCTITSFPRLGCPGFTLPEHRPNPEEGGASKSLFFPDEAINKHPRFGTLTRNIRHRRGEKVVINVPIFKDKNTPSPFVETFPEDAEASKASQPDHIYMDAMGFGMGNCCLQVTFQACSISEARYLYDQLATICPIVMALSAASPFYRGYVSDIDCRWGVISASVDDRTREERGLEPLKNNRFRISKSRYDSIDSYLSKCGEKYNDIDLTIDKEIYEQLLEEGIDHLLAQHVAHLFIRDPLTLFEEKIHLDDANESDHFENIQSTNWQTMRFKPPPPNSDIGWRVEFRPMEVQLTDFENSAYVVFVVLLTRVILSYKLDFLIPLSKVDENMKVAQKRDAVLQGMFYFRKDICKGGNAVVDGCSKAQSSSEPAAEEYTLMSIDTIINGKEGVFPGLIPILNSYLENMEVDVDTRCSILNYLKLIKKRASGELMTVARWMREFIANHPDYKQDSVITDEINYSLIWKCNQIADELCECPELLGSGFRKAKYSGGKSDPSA
T1 sequence (O09172 1-274 partner): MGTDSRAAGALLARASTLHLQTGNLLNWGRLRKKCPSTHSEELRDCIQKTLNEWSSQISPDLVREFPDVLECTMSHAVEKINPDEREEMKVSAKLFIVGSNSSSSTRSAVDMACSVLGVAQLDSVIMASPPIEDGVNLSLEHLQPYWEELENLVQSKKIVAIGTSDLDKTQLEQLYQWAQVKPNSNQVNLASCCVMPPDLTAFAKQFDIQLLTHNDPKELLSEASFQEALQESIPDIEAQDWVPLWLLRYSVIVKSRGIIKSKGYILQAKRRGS
Method: (§1) Indomethacin (Sigma) was administered at a dose of 25 mg/kg in 5% sodium carbonate to Vanin-1^−/− (n=5) and WT (n=5) mice in 2 SC injections at 12 h-interval. Mice were sacrificed 20 hrs after the first injection. […] Cystamine was given by gavage 3 times on day 1 and once on day 2 at the dose of 120 mg/kg. The dose was adjusted so as to not induce intestinal inflammation. Mice were sacrificed 5 hours after the last gavage. To evaluate the impact of cystamine on indomethacin treatment, Vanin-1^−/− (n=5) and WT (n=5) mice received cystamine preceding indomethacin injection. In a complement study, indomethacin-treated WT mice (n=5) were supplemented with N-acetylcysteine (NAC) to determine the relationship between GSH depletion and injury. The antioxidant was given by gavage (200 μl of a 150 mg/ml, pH 7 solution) three times a day, starting 12 hrs prior indomethacin treatment.
(§2) γ-GCS activity was determined by the method described by (Seelig, 1984). GSH levels were determined according to Tietze et al., (1969).

GSH [2] = test: GSH levels in liver of treated mice; format: in vivo, mouse
Method: as §1, §2

GSH [3] = test: GSH levels in intestine of treated mice; format: in vivo, mouse
Method: as §1, §2

γ-GCS [4] = target: T1, γ-GCS; test: γ-GCS activity in liver of treated mice; format: in vivo
Method: as §1, §2

jejunum = test: Histological examination of intestinal injury; format: in vivo, mouse; settings: following indomethacin treatment
Method: as §1
After sacrifice, jejunum of the indomethacin-treated mice were removed, formalin-fixed and paraffin-embedded. They were cut to 4-μm thickness and stained with hematoxylin-phloxine-saffron. Immunohistochemistry was performed on jejunum cryosections using the anti-Vanin-1 mAb H202-407 modified from Aurrand-Lions et al. (Aurrand-Lions, 1996).

MPO = test: Intestinal myeloperoxidase (MPO) activity; format: in vivo, mouse; settings: jejunum, after indomethacin treatment
Method: as §1, with “treatment. 3-cm intestinal samples taken in the most injured part, i.e. the colon of S. mansoni-infected mice and the jejunum of indomethacin-treated mice. Samples were homogenized in 0.5% hexadecyltrimethyl-ammonium bromide. MPO activity was determined as described previously (Liaudet, 2000).” for “treatment.”

[5] = tested on: MIP-2, iNOS, COX-2, and COX-1 mRNAs; test: Semi-quantitative RT-PCR of inflammatory factors in jejunum; format: in vivo, mouse
Method: as §1
Total cellular RNA was isolated from jejunum samples of indomethacin-treated mice, by guanidinium thiocyanate phenol-chloroform extraction.

Vanin-1 = settings: cited from earlier work
[6] = jejunum, Vanin-1−/− mice, indomethacin 2 x 25 mg/kg SC
[7] = as described by Pitari et al. (1994)
[8] = NAC given to indomethacin-treated mice
[9] = control as in indomethacin-treated animals
[10] = cystamine administered without indomethacin

`COc1ccc2c(c1)c(CC(=O)O)c(C)n2C(=O)c1ccc(Cl)cc1` [Indomethacin, indomethacin] showed a γ-GCS (γ-GCS [1]; KO (Vanin-1−/−) mice) of 23.7 ± 2.63, a γ-GCS (γ-GCS [1]; WT mice) of 18.4 ± 2.18 and a GSH (GSH [2]; KO (Vanin-1−/−) mice) of 16.6 ± 1.26. For the same molecule, the GSH (GSH [2]; WT mice) was 9.50 ± 1.44, the GSH (GSH [3]; KO (Vanin-1−/−) mice) was 1.37 ± 0.24 and the GSH (GSH [3]; WT mice) was 0.56 ± 0.08. The γ-GCS (γ-GCS [4]; KO (Vanin-1−/−) mice) was 37.9 ± 3.33, the γ-GCS (γ-GCS [4]; WT mice) was 23.4 ± 0.72 and the “γ-GCS activity, change” value (γ-GCS [4]; following indomethacin treatment) was “increased”. The “Histology of intestinal injury” value (jejunum; Vanin-1−/− mice) was “appeared normal”, the “Histology of intestinal injury” value (jejunum; WT mice) was “flattened mucosal villi” and the “Intestinal MPO activity” value (MPO) was “dramatically enhanced”. For the same molecule, the “COX-2 and iNOS mRNAs” value [5, 6] was “barely amplified”, the “MIP-2 mRNA” value [5, 6] was “undetectable” and the “COX-2, iNOS and MIP-2 mRNAs” value ([5]; jejunum, WT mice, indomethacin 2 x 25 mg/kg SC) was “sharp augmentation”.
In the case of `O=C(O)CI` [iodoacetate], the “type of Vanin-1 (pantetheinase) inhibition” value (Vanin-1) is given as “irreversible inhibition”.
In the case of `c1cc(SSc2ccncc2)ccn1` [4,4′-dithiodipyridine], the “type of Vanin-1 (pantetheinase) inhibition” value (Vanin-1; [7]) is listed as “reversible inhibition”.
In the case of `NC(=O)CI` [iodoacetamide], the “type of Vanin-1 (pantetheinase) inhibition” value (Vanin-1; [7]) is listed as “irreversible inhibition”.
In the case of `CCN1C(=O)C=CC1=O` [N-ethyl maleimide], the “type of Vanin-1 (pantetheinase) inhibition” value (Vanin-1; [7]) is listed as “irreversible inhibition”.
With `CC(=O)N[C@@H](CS)C(=O)O` [NAC, N-acetylcysteine] the “γ-GCS activity, effect” value (γ-GCS [1]; [8]) was “no marked effect” and the “GSH levels, effect” value (GSH [3]; [8]) was “no marked effect”.
With `NCCSSCCN` [Cystamine, cystamine] the γ-GCS (γ-GCS [1]; KO (Vanin-1−/−) mice) was 21.5 ± 2.4, the γ-GCS (γ-GCS [1]; WT mice) was 20.2 ± 1.2 and the GSH (GSH [2]; KO (Vanin-1−/−) mice) was 5.55 ± 1.20. For the same molecule, the GSH (GSH [2]; WT mice) was 5.36 ± 1.15, the “GSH levels, change” value (GSH [2]; [9]) was “dramatically reduced” and the GSH (GSH [3]; KO (Vanin-1−/−) mice) was 1.0 ± 0.05. The GSH (GSH [3]; WT mice) was 0.90 ± 0.12, the “intestinal GSH levels, change” value (GSH [3]; cystamine administration) was “reduced” and the γ-GCS (γ-GCS [4]; KO (Vanin-1−/−) mice) was 11.2 ± 0.58. For the same molecule, the γ-GCS (γ-GCS [4]; WT mice) was 10.8 ± 0.63, the “γ-GCS activity, change” value (γ-GCS [4]; [9]) was “dramatically reduced” and the “type of Vanin-1 (pantetheinase) inhibition” value (Vanin-1; [7]) was “reversible inhibition”. The “COX-2 mRNA” value [5, 10] was “moderate upregulation”, the “iNOS and MIP-2 mRNAs” value [5, 10] was “did not change” and the “mRNA expression of inflammatory factors” value ([5]; cystamine given to indomethacin-treated Vanin-1−/− mice) was “restored mRNA expression to WT levels”.
For `OCCSSCCO` [oxidized mercaptoethanol], the “type of Vanin-1 (pantetheinase) inhibition” value (Vanin-1; [7]) is given as “reversible inhibition”.
In the case of `O=C(O)c1cc(SSc2ccc([N+](=O)[O-])c(C(=O)O)c2)ccc1[N+](=O)[O-]` [5,5′-dithiobis(2-nitrobenzoic acid)], the “type of Vanin-1 (pantetheinase) inhibition” value (Vanin-1; [7]) is listed as “reversible inhibition”.

— patent US20040247524A1, “Method of treatment of an inflammatory disorder with a Vanin-1 antagonist” (priority 2003, published 2004)
